Marks after values point to notes of the source that are not given here.
Experiments:
swiss albino mice [1] = test: Skeletal muscle relaxant activity, Rota rod, second experiment (racemic, S isomer, R isomer); format: in vivo; conditions: confirmed by a Rota-rod method
Method: The evaluation of skeletal muscle relaxant activity of the formulations containing phenyramidol racemic, dextro and laevo isomers of oxalate salts in swiss albino mice were carried out using Rota rod apparatus. Each animal was trained only once per day for 5 days. […] Mouse was placed on rota rod only when it achieved the speed of 25 rpm. The ‘fall off time’ in seconds was noted down when the mouse falls from rotating rod. Endurance time was measured up to 120 seconds. The skeletal muscle relaxant activity was assessed using 0 hr, 1 hr, 2 hrs, 4 hrs and 6 hrs time points after the dose administration. A total of 100 mice were selected and randomly distributed into ten main groups with 10 animals per group.
Two efficacy variables were assessed during the experiment: 1. Percent animal falling from the rod was noted; 2. Endurance Time (ET): The time taken for a mouse to fall from the rod was taken as endurance time. The endurance time was taken up to 120 sec and treatment group ET was compared to normal control. These efficacy variables were assessed at five time points 0 hr, 1 hr, 2 hr, 4 hr, and 6 hr for each and every animal.
In another experiment, the studies have been extended to confirm the isomer which is having more skeletal muscle relaxant activity. Control group (R1) receiving only vehicle (water for injection) served as a placebo in the study. […]

swiss albino mice [2] = test: Analgesic activity, acetic acid induced writhing method; format: in vivo
Method: The objective of the study was to evaluate the analgesic activity of the tested formulations of the compounds of the present invention. The test was conducted in Swiss albino mice using acetic acid induced writhing method. A total of 78 pre-screened mice (showing writhing response within 10 minutes*) were divided into 6 groups of 13 animals (6 males+7 females) each. The animals showing no writhing response within 10 mins were excluded. Diclofenac and pentazocine were used as positive controls. The formulations were given orally to the different groups of animals and the number of writhes counted for a period of 15 minutes, after the onset of writhes. If the onset of writhes occurred 30 after 10 minutes the number of writhes was recorded as V. The time of onset of writhes was recorded for each animal.
The control group received 1% gum acacia. The Groups 2, 3, and 4 received the formulations viz: Phen 2; Phen 3 and Phen 4 respectively. Diclofenac and pentazocine were used as positive control and given to groups 5 and 6 respectively. Diclofenac, a potent analgesic & anti-inflammatory agent; and 5 pentazocine an opoid analgesic were selected for comparative evaluation of test formulations. Both these drugs were administered to different groups of animals at the dose of 2 mg/kg. The group 1 (Phen 1) served as—Ve Control group in the study. Phen 5 (Diclofenac—2 mg/kg) and Positive Control: Phen 6 (Pentazocine 2 mg/kg) served as positive controls.
Human daily dose of 2400 mg (800 mg×3 times) was extrapolated to mice for Phen3 and human daily dose of 1200 mg (400 mg×3 times) was extrapolated to mice for Phen2 and Phen 4. The numbers of writhes observed are given below in Table 4 for each formulation.
Further, the evaluation of analgesic activity was carried out using variable dosage forms with different groups. A total of 100 animals (50 males+50 females) were selected randomly and distributed into ten main groups with 10 animals per group (5 M+5 F). Human daily dose of 2400 mg (800 mg×3 times) was extrapolated to mice for Phen 3 (Phenyramidol Racemic (Hydrochloride) and human daily dose of 1200 mg (400 mg×3 times), 1800 mg (400 mg×4.5 times), 2000 mg (400 mg×5 times) & 2400 mg (400 mg×6 times) was extrapolated to mice for Phen2 and Phen4 groups.
The control group 1 received 1% gum acacia and served as negative control group. Groups 2, 3, 4 & 5 received the formulation Phen2. Groups 6, 7, 8 & 9 received the formulation Phen 4 (Isomer 2) & Group 10 received the formulation Phen 3 (Racemic).
Further, one more experiment was done with phenyramidol hydrochloride to evaluate the analgesic activity at lesser dosage levels using acetic acid induced method. A total of 50 animals (25 males+25 females) were selected and randomly distributed into five main groups with 10 animals per group (5 M+5 F). 5 Human daily dose of 600 mg (400×1.5 times) & 1200 mg (800 mg×1.5 times) was extrapolated to mice for Phen 3 (Racemic) and human daily dose of 600 mg (400 mg×1.5 times) was extrapolated to mice for (−) Phenyramidol Hydrochloride & (+) Phenyramidol Hydrochloride and the results are discussed in Table 6.

SMILES: Cl.O[C@H](CNc1ccccn1)c1ccccc1 [(+) Phenyramidol Hydrochloride, (S)-Phenyramidol Hydrochloride Salt]
- skeletal muscle relaxant activity (summary statement) (swiss albino mice [1]): enhanced skeletal muscle relaxant activity
- Average no. of writhes (swiss albino mice [2]; Table 6, dose 600 mg (human daily dose extrapolated to mice), mean ± SD, n = 10): 5.00 ± 4.64*
- analgesic activity by decrease in the number of writhes induced by acetic acid (swiss albino mice [2]; experiment of Table 6, lesser dosage levels): significant analgesic activity

Source: patent publication US8389551B2, “Optical enantiomers of phenyramidol and process for chiral synthesis” (Fermenta Biotech (UK) Limited, priority 2006, dated 2013)
